Results: patent US11203565B2, “Ester compound and PIN1 inhibitor, inflammatory disease therapeutic, and colon cancer therapeutic in which said ester compound is used” (Hiroshima University, priority 2016, dated 2021)

Legend:
[1] = test system: model animals of ulcerative colitis (3% DSS); assay: Therapeutic experiment using model animals of ulcerative colitis (Example 4); assay type: in vivo, C57BL6 mice; conditions: DSS mice; for tissue damage in the large intestine (stained section): Day 7
Description: To C57BL6 mice of 8 weeks old, 3% DSS (dextran sulfate sodium)-containing water or water (control) was administered by allowing the mice to drink it for 7 days. For the mice to which DSS was administered, groups in which 5-ASA (compound name: 5-aminosalicylic acid; generic name: Mesalazine), which is a therapeutic agent for inflammatory bowel diseases, the compound synthesized in Example 2-7 (H-31), or the compound synthesized in Example 2-36 (H-179) was administered, and a group in which no compound was administered were provided. On Day 7 after the beginning of the administration, the body weight of each mouse was measured, and the large intestine was removed from the mouse, followed by carrying out histological study. […] In FIGS. 4(A) and (B), “normal” indicates a case where water was administered, and “DSS” indicates cases where DSS-containing water was administered. “non” indicates a case where no compound was administered, and “5-ASA”, “H-31”, and “H-179” indicate cases where the respective compounds were administered. The dose was as follows: 5-ASA, 300 mg/kg/day; H-31, 1 mg/kg/day; H-179, 1 mg/kg/day. As shown in FIG. 4(A), weight loss due to inflammation of the intestine was found in the cases where DSS was administered.

[2] = test system: model animals of ulcerative colitis (3% DSS); assay: Therapeutic experiment using model animals of ulcerative colitis 2 (Example 6); assay type: in vivo, C57BL6 mice; conditions: DSS mice, 5-ASA 300 mg/kg/day or 150 mg/kg/day
Description: To C57BL6 mice of 8 weeks old, 3% DSS (dextran sulfate sodium)-containing water or water (control) was administered by allowing the mice to drink it for 7 days. […] On Day 7 after the beginning of the administration, the body weight of each mouse was measured, and the large intestine was removed from the mouse, followed by carrying out histological study. […] In addition, an experiment for measuring the colon length was carried out.

Pin1 protein = assay: Confirmation of Pin1 expression level in the intestinal tract of DSS mice (Example 7); assay type: in vivo; conditions: after 7 days of administration
Description: The expression level of Pin1 in the intestinal tract was measured for each mouse subjected to the therapeutic experiment in Example 5.
The present results also support that the compound synthesized in Example 2-7 (H-31) prevents development of ulcerative colitis.

[3] = test system: mice having induced inflammation of the large intestine; conditions: oral administration to mice, Non-patent Document 7; cited from earlier work
Pin1 = biological target: T1, Pin1 (Homo sapiens, UniProt Q13526); assay: Evaluation of inhibitory activity on function of Pin1: cell assay using degree of AMPK phosphorylation as index; assay type: cell-based; design: key to Pin1 inhibitory activity: −: Promotion of AMPK phosphorylation was not (or hardly) found.; +: Phosphorylation of AMPK was promoted, but the promotion was weaker than that by C1.; ++: Phosphorylation of AMPK was promoted to the same degree as in the case of C1.; +++: Phosphorylation of AMPK was promoted more strongly than in the case of C1; conditions: 293T cells; for Pin1 inhibitory activity: compound 100 μM, 10 mM 2-DG, pAMPK immunoblot rated by comparison with C1; for inhibitory activity on Pin1 (stated in words): cell-based experiment, 100 μM
T1 construct: endogenous in cells; host or cells: 293T cells
T1 sequence (Q13526 whole entry): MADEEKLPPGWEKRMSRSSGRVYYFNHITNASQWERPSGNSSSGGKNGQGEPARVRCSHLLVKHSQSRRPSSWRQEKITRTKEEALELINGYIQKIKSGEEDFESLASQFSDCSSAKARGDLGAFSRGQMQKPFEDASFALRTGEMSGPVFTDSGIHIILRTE
Description: In order to evaluate the inhibitory activities of the compounds of the present invention synthesized in Example 2 on the function of Pin1, an assay using cells was carried out according to a method previously developed by the present inventors (Yusuke Nakatsu et al., Journal of Biological Chemistry, 2015, Vol. 290, No. 40, pp. 24255-24266), using as an index the degree of phosphorylation of AMPK (AMP-activated protein kinase), whose phosphorylation is known to be suppressed by Pin1.
Briefly, 293T cells were plated on a 24-well plate coated with collagen. Forty-eight hours later, each compound (100 μM) synthesized in the Example was added to the plate, and the plate was left to stand in an incubator for 30 minutes. Thereafter, 10 mM 2-DG was added to the plate, and, 1 hour later, each sample was collected using a buffer containing mercaptoethanol and SDS.
According to conventional methods, SDS-PAGE and blotting were carried out, and then blocking was carried out with 3% BSA for 1 hour. Thereafter, reaction was carried out at normal temperature for 1 hour with each of a pAMPK antibody (Cell signaling 1:2000, Can get signal solution 1: diluted by Toyobo) as a primary antibody, and an HRP-linked anti rabbit IgG (GE healthcare 1:4000, Can get signal solution 2: diluted by Toyobo) as a secondary antibody, to perform detection.
As a compound to be compared, C1: (R)-2-(5-(4-methoxyphenyl)-2-methylfuran-3-carboxamido)-3-(naphthalene-6-yl)propanoic acid, which is an already reported Pin1 inhibitor, was used.
In FIG. 3, “-” indicates the degree of phosphorylation of AMPK in a case where no Pin1 inhibitor was added, and “C1”, “H-30”, “H-31”, “H-32”, and “H-33” indicate the degrees of phosphorylation of AMPK in cases where the respective Pin1 inhibitors were added. […] The inhibitory activity on the function of Pin1 was rated as follows based on comparison with the degree of inhibition by C1.

Row | Structure (SMILES) | Pin1 inhibitory activity (Pin1) | other results
1 | Nc1ccc(O)c(C(=O)O)c1 [Compound 5-ASA, 5-aminosalicylic acid, reference compound] |  | tissue damage in the large intestine (stained section) ([1]; 5-ASA 300 mg/kg/day): tissue damage in the large intestine due to DSS was found; tissue damage in the large intestine (stained section) [2]: tissue damage in the large intestine due to DSS was found; weight loss [2]: No significant effect was found; increase in the Pin1 protein level in the intestinal tract (Pin1 protein): could not be ameliorated
2 | COc1ccc(-c2cc(C(=O)N[C@H](Cc3ccc4ccccc4c3)C(=O)O)c(C)o2)cc1 [Compound C1, (R)-2-(5-(4-methoxyphenyl)-2-methylfuran-3-carboxamido)-3-(naphthalene-6-yl)propanoic acid] |  | development of inflammation of the large intestine [3]: development of the inflammation can be suppressed
3 | O=C(O[C@H](Cc1ccc2ccccc2c1)C(=O)O)c1ccc(C(O)c2ccccc2)cc1 (stereo partly shown) [Compound H-23] | ++ | 
4 | O=C(O[C@H](Cc1ccc2ccccc2c1)C(=O)O)c1ccc2ccccc2c1 [Compound H-30] | ++ | 
5 | COc1ccc(-c2cc(C(=O)O[C@H](Cc3ccc4ccccc4c3)C(=O)O)c(C)o2)cc1 [Compound H-32] | + | 
6 | O=C(O[C@H](Cc1ccc2ccccc2c1)C(=O)O)c1ccc(-c2ccccc2)cc1 [Compound H-33] | + | 
7 | O=C(CC1c2ccccc2-c2ccccc21)O[C@H](Cc1ccc2ccccc2c1)C(=O)O [Compound H-106] | ++ | 
8 | O=C(O[C@H](Cc1ccc2ccccc2c1)C(=O)O)c1cccc(Oc2ccccc2)c1 [Compound H-130] | ++ | 
9 | O=C(O[C@H](Cc1ccc2ccccc2c1)C(=O)O)c1ccccc1Oc1ccccc1 [Compound H-132] | + | 
10 | O=C(Cc1cccc2ccccc12)O[C@H](Cc1ccc2ccccc2c1)C(=O)O [Compound H-151] | ++ | 
11 | O=C(O)[C@@H](Cc1ccc2ccccc2c1)OC(=O)N1c2ccccc2Oc2ccccc21 [Compound H-157] | ++ | 
12 | O=C(O)[C@@H](Cc1ccc2ccccc2c1)OC(=O)n1c2ccccc2c2ccccc21 [Compound H-175] | +++ | 
13 | O=C(COc1ccccc1)O[C@H](Cc1ccc2ccccc2c1)C(=O)O [Compound H-176] | ++ | 
14 | O=C(COc1ccc2ccccc2c1)O[C@H](Cc1ccc2ccccc2c1)C(=O)O [Compound H-177] | ++ | 
15 | O=C(COc1cccc2ccccc12)O[C@H](Cc1ccc2ccccc2c1)C(=O)O [Compound H-179] | +++ | tissue damage in the large intestine (stained section) ([1]; compound 1 mg/kg/day): tissue damage in the large intestine was hardly found; weight loss (body weight as ratio to body weight before administration) ([1]; compound 1 mg/kg/day, Day 7, vs no compound): the weight loss was significantly smaller
16 | O=C(Cc1c[nH]c2ccccc12)O[C@H](Cc1ccc2ccccc2c1)C(=O)O [Compound H-180] | ++ | 
17 | Cc1ccc(C(=O)O[C@H](Cc2ccc3ccccc3c2)C(=O)O)cc1C [Compound H-265] | + | 
18 | O=C(O[C@H](Cc1ccc2ccccc2c1)C(=O)O)c1ccc(Cl)c(Cl)c1 [Compound H-269] | + | 
19 | O=C(O[C@H](Cc1ccc2ccccc2c1)C(=O)O)c1ccc(F)c(F)c1 [Compound H-270] | + | 
20 | O=C1C=CC(=O)c2c(O)cccc21 [Juglone] |  | development of inflammation of the large intestine [3]: development of the inflammation can be suppressed

The next lines start with results.

Row | Pin1 inhibitory activity (Pin1) | Structure (SMILES) | other results
21 | − | O=C(O[C@H](Cc1ccc2ccccc2c1)C(=O)OCc1ccccc1)c1ccc2ccccc2c1 [Compound H-21] | inhibitory activity on Pin1 (stated in words) (Pin1): no inhibitory activity on Pin1
22 | ++ | O=C(O[C@H](Cc1ccc2ccccc2c1)C(=O)O)c1ccc(Oc2ccccc2)cc1 [Compound H-123] | 
23 | ++ | O=C(O[C@H](Cc1ccc2ccccc2c1)C(=O)O)C(c1ccccc1)c1ccccc1 [Compound H-134] | 
24 | +++ | O=C(O[C@@H](Cc1ccc2ccccc2c1)C(=O)O)C1c2ccccc2-c2ccccc21 [Compound H-141] | inhibitory activity on Pin1 (stated in words) (Pin1): both have inhibitory activities on Pin1
25 | + | O=C(Cc1ccc2ccccc2c1)O[C@H](Cc1ccc2ccccc2c1)C(=O)O [Compound H-149] | 
26 | + | COc1cc(OC)cc(C(=O)O[C@H](Cc2ccc3ccccc3c2)C(=O)O)c1 [Compound H-198] | 
27 | + | O=C(O[C@H](Cc1ccc2ccccc2c1)C(=O)O)c1cc(Cl)cc(Cl)c1 [Compound H-200] | 
28 | + | Cc1cc(C)cc(C(=O)O[C@H](Cc2ccc3ccccc3c2)C(=O)O)c1 [Compound H-210] | 
29 | + | CC(C)(C)OC(=O)N[C@@H](Cc1ccccc1)C(=O)O[C@H](Cc1ccc2ccccc2c1)C(=O)O [Compound H-248] | 
30 | + | COc1ccc(C(=O)O[C@H](Cc2ccc3ccccc3c2)C(=O)O)cc1OC [Compound H-266] | 
